Values quoted from earlier work, collected in patent US20250002523A1, “RUBUSOSIDE GLUCOSIDES” (SYMRISE AG, priority 2021, published 2025).

Conditions: reported in the background section

C=C1C[C@@]23CC[C@H]4[C@@](C)(CCC[C@@]4(C)C(=O)O[C@@H]4O[C@H](CO)[C@@H](O)[C@H](O)[C@H]4O)[C@@H]2CC[C@]1(O[C@@H]1O[C@H](CO)[C@@H](O)[C@H](O)[C@H]1O)C3 [Rubusoside]
sweet taste impression relative to sucrose: 200 times as strong as sucrose
